Results reported in patent US8188064B2, “Vitamin D analogs for obesity prevention and treatment” (Wisconsin Alumni Research Foundation, priority 2003, dated 2012).
Entries after “also recorded” stand apart in the source; their conditions may differ.

Legend:
[1] = Intestinal calcium transport (everted gut sac); type: in vivo; conditions: result in words, vitamin D deficient rat model, compared to 1α,25(OH)2D3
Protocol: (§1) Male, weanling Sprague-Dawley rats were placed on Diet 11 (0.47% Ca) diet+AEK for one week followed by Diet 11 (0.02% Ca)+AEK for 3 weeks. The rats were then switched to a diet containing 0.47% Ca for one week followed by two weeks on a diet containing 0.02% Ca. Dose administration began during the last week on 0.02% calcium diet. Four consecutive ip doses were given approximately 24 hours apart. Twenty-four hours after the last dose, blood was collected from the severed neck and the concentration of serum calcium determined as a measure of bone calcium mobilization. The first 10 cm of the intestine was also collected for intestinal calcium transport analysis using the everted gut sac method.

[2] = tested on: Human promyelocytic leukemia (HL60) cells; assay: HL-60 differentiation (nitro blue tetrazolium reduction); type: cell-based; conditions: for cells induced to differentiate in the NBT assay: concentration 1×10^−7 M; for differentiation of HL-60 cells, compared to 1α,25(OH)2D3: result in words
Protocol: The study drugs were dissolved in ethanol and the concentrations determined using UV spectrophotometry. Serial dilutions were prepared so that a range of drug concentrations could be tested without changing the final concentration of ethanol (≦0.2%) present in the cell cultures.
Human promyelocytic leukemia (HL60) cells were grown in RPMI-1640 medium containing 10% fetal bovine serum. The cells were incubated at 37° C. in the presence of 5% CO2.
HL60 cells were plated at 1.2×10^5 cells/ml. Eighteen hours after plating, cells in duplicate were treated with drug. Four days later, the cells were harvested and a nitro blue tetrazolium reduction assay was performed (Collins et al., 1979; J. Exp. Med. 149:969-974). The percentage of differentiated cells was determined by counting a total of 200 cells and recording the number that contained intracellular black-blue formazan deposits. Verification of differentiation to monocytic cells was determined by measuring phagocytic activity (data not shown).

SCD-1 mRNA = assay: Inhibition of SCD-1 mRNA induction in 3T3-L1 cells (RT-PCR); type: cell-based, murine; conditions: result in words, MDI-treated 3T3-L1 cells
Excerpt: Chomczynski, P. et al., Anal. […] NO: 4)).

[3] = Bone calcium mobilization (serum calcium on low calcium diet); type: in vivo, rat; conditions: result in words; vitamin D deficient rat model, compared to 1α,25(OH)2D3
Protocol: as §1

3T3-L1 cells = assay: Inhibition of 3T3-L1 differentiation into mature adipocytes (Oil-Red-O staining); type: cell-based, murine; conditions: for inhibition of differentiation of 3T3-L1 cells into mature adipocytes (Oil-Red-O staining): result in words, MDI-treated cells, staining at day 10
Protocol: Various 19-nor vitamin D analogs were or are tested and found to inhibit the differentiation of preadipocytes into mature adipocytes, to reduce body fat, to inhibit an increase in PPARγ, C/EBPα, and/or SCD-1 gene transcription and to be useful in treating and preventing obesity both in vivo and in vitro. The undifferentiated preadipocyte 3T3-L1 subline, a derivative of the original mouse fibroblast cell line, is one of the most accepted models for investigating the adipogenesis process and was used for the analysis. Two days after reaching confluence, 3T3-L1 cells can be induced to differentiate into adipocytes (see Mackall, J. C. et al. J. Biol. Chem., 251(20), 6462-6464 (1976)) with the addition of a cAMP phosphodiesterase inhibitor, dexamethasone (a glucocortoid), and insulin. […] The induction of PPARγ and C/EBPα is required for adipocyte differentiation. […] SCD-1 is an enzyme found in adipocytes that converts saturated fatty acids (C16 and C18) to their monounsaturated forms (C16:1 and C18:1). The deposition of triglyceride can also be detected as early as 3 days, and by the 7th to 14th days post-confluence, greater than 80% of the cells in the monolayer stain positively with Oil-red-O.

[4] = tested on: 24-hydroxylase (24Ohase) gene promoter in ROS 17/2.8 (bone) cells; assay: In vitro transcription assay (luciferase reporter); type: cell-based; conditions: result in words
Protocol: Transcription activity was measured in ROS 17/2.8 (bone) cells that were stably transfected with a 24-hydroxylase (24Ohase) gene promoter upstream of a luciferase reporter gene (Arbour et al., 1998). Cells were given a range of doses. Sixteen hours after dosing the cells were harvested and luciferase activities were measured using a luminometer. RLU=relative luciferase units.

[5] = target: T1, full-length recombinant rat vitamin D receptor (Rattus norvegicus, UniProt P13053); assay: Vitamin D receptor binding (competition with 3H-1,25(OH)2D3); conditions: result in words, competition for tritiated hormone binding
T1 construct: Full-length recombinant rat receptor was expressed in E. coli; histidine tag (C); made in house; host or cells: E. coli BL21(DE3) Codon Plus RIL
T1 sequence (P13053 1-423): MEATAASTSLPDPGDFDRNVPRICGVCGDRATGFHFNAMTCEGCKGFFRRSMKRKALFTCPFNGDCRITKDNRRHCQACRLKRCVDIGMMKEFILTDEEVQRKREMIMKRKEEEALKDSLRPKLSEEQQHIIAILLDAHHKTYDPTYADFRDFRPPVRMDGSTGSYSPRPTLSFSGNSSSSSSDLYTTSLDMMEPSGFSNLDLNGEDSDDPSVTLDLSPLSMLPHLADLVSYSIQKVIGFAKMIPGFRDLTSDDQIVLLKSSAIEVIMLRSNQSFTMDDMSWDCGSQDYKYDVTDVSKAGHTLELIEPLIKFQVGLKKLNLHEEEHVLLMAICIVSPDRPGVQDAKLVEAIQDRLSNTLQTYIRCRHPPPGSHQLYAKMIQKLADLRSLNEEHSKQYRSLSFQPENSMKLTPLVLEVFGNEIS
Protocol: Full-length recombinant rat receptor was expressed in E. coli BL21(DE3) Codon Plus RIL cells and purified to homogeneity using two different column chromatography systems. The first system was a nickel affinity resin that utilizes the C-terminal histidine tag on this protein. The protein that was eluted from this resin was further purified using ion exchange chromatography (S-Sepharose Fast Flow). Aliquots of the purified protein were quick frozen in liquid nitrogen and stored at −80° C. until use. For use in binding assays, the protein was diluted in TEDK50 (50 mM Tris, 1.5 mM EDTA, pH 7.4, 5 mM DTT, 150 mM KCl) with 0.1% Chaps detergent. The receptor protein and ligand concentration was optimized such that no more than 20% of the added radiolabeled ligand was bound to the receptor.
Unlabeled ligands were dissolved in ethanol and the concentrations determined using UV spectrophotometry (1,25(OH)2D3: molar extinction coefficient=18,200 and λmax=265 nm; Analogs: molar extinction coefficient=42,000 and λmax=252 nm). Radiolabeled ligand (^3H-1,25(OH)2D3, ˜159 Ci/mmole) was added in ethanol at a final concentration of 1 nM.
Radiolabeled and unlabeled ligands were added to 100 mcl of the diluted protein at a final ethanol concentration of ≦10%, mixed and incubated overnight on ice to reach binding equilibrium. The following day, 100 mcl of hydroxylapatite slurry (50%) was added to each tube and mixed at 10-minute intervals for 30 minutes. The hydroxylapaptite was collected by centrifugation and then washed three times with Tris-EDTA buffer (50 mM Tris, 1.5 mM EDTA, pH 7.4) containing 0.5% Titron X-100. After the final wash, the pellets were transferred to scintillation vials containing 4 ml of Biosafe II scintillation cocktail, mixed and placed in a scintillation counter. Total binding was determined from the tubes containing only radiolabeled ligand.

SMILES	intestinal calcium transport activity [1]	cells induced to differentiate in the NBT assay [2]	differentiation of HL-60 cells, compared to 1α,25(OH)2D3 [2]	inhibition of SCD-1 mRNA induction (SCD-1 mRNA)	bone calcium mobilization activity [3]	inhibition of differentiation of 3T3-L1 cells into mature adipocytes (Oil-Red-O staining) (3T3-L1 cells)	inhibition of differentiation of 3T3-L1 cells into mature adipocytes (Oil-Red-O staining) (3T3-L1 cells; listed as LAGS)	transcriptional activity in bone cells, compared to 1α,25(OH)2D3 [4]	binding to the vitamin D receptor, compared to 1α,25(OH)2D3 [5]	binding to the vitamin D receptor, compared to 1α,25(OH)2D3 ([5]; listed as AGS)	intestinal calcium transport activity ([1]; listed as (20S)-OM)	intestinal calcium transport activity ([1]; listed as OM)	inhibition of SCD-1 mRNA induction (SCD-1 mRNA; listed as OM)	inhibition of differentiation of 3T3-L1 cells into mature adipocytes (Oil-Red-O staining) (3T3-L1 cells; listed as OM)	binding to the vitamin D receptor, compared to 1α,25(OH)2D3 ([5]; listed as OM)	fold more active than the native hormone 1α,25-(OH)2D3 in inhibition of adipocyte differentiation (3T3-L1 cells; Oil-Red-O staining)
CC(CCCC(C)(C)O)C1CCC2C(=CC=C3CC(O)C(=CCCO)C(O)C3)CCCC21C (stereo not shown) [1AGS]	relatively high intestinal calcium transport activity; also recorded: active	same degree of differentiation	as potent as	nearly equipotent; also recorded: active	significant ability to mobilize calcium from bone; also recorded: active	nearly equipotent; also recorded: highest activity; also recorded: so much greater; also recorded: active	slightly more active	significant transcriptional activity	very active	less than five times less potent						
C=C1[C@H](O)CC(=C/C=C2\CCC[C@]3(C)[C@@H]([C@@H](C)CCCC)CC[C@@H]23)C[C@H]1O [(20S)OM]			almost as potent	still possess activity	very little bone calcium mobilization activity	still possess activity		about the same transcriptional activity	as or nearly effective as calcitriol		less activity	very little activity	increased slightly	increased slightly	bound equally well	
COCOCCC=C1C(O)CC(=CC=C2CCCC3(C)C2CCC3C(C)CCCC(C)(C)O)CC1O (stereo not shown) [F-Wit]	relatively high intestinal calcium transport activity; also recorded: active	same degree of differentiation	as potent as	active	significant ability to mobilize calcium from bone; also recorded: active	also active		significant transcriptional activity	very active; also recorded: less than five times less potent							
C=C1[C@H](O)CC(=C/C=C2\CCC[C@@H]3[C@@H]([C@@H](C)CCCC(C)(C)O)CC[C@@H]23)C[C@H]1O [VD-03]	about as active as; also recorded: approximately the same activity		high potency	active	relatively low ability	active		higher transcriptional activity	very active; also recorded: as well as the native hormone							approximately 10 fold
